Measurements taken from patent US9796711B2, “Substituted pyrazolo[3,4-b]pyridin-6-carboxylic acids and method of use” (AbbVie S.àr.l., priority 2015, dated 2017).

Columns and labels:
ΔF508-CFTR [1] = molecular target: T1, ΔF508-CFTR (Homo sapiens, UniProt P13569, DEL508-508); assay: CFTR cell surface levels using HRP-tagged ΔF508-CFTR expressing CFBE cells, in the presence of a co-corrector; assay type: cell-based; conditions: HRP-tagged ΔF508-CFTR expressing CFBE cells, in the presence of 3 μM co-corrector; for EC50: read-out: EC50
T1 construct: host or cells: CFBE41o-, doxycycline-inducible
T1 sequence (P13569 with tags, fused parts or gaps DEL508-508): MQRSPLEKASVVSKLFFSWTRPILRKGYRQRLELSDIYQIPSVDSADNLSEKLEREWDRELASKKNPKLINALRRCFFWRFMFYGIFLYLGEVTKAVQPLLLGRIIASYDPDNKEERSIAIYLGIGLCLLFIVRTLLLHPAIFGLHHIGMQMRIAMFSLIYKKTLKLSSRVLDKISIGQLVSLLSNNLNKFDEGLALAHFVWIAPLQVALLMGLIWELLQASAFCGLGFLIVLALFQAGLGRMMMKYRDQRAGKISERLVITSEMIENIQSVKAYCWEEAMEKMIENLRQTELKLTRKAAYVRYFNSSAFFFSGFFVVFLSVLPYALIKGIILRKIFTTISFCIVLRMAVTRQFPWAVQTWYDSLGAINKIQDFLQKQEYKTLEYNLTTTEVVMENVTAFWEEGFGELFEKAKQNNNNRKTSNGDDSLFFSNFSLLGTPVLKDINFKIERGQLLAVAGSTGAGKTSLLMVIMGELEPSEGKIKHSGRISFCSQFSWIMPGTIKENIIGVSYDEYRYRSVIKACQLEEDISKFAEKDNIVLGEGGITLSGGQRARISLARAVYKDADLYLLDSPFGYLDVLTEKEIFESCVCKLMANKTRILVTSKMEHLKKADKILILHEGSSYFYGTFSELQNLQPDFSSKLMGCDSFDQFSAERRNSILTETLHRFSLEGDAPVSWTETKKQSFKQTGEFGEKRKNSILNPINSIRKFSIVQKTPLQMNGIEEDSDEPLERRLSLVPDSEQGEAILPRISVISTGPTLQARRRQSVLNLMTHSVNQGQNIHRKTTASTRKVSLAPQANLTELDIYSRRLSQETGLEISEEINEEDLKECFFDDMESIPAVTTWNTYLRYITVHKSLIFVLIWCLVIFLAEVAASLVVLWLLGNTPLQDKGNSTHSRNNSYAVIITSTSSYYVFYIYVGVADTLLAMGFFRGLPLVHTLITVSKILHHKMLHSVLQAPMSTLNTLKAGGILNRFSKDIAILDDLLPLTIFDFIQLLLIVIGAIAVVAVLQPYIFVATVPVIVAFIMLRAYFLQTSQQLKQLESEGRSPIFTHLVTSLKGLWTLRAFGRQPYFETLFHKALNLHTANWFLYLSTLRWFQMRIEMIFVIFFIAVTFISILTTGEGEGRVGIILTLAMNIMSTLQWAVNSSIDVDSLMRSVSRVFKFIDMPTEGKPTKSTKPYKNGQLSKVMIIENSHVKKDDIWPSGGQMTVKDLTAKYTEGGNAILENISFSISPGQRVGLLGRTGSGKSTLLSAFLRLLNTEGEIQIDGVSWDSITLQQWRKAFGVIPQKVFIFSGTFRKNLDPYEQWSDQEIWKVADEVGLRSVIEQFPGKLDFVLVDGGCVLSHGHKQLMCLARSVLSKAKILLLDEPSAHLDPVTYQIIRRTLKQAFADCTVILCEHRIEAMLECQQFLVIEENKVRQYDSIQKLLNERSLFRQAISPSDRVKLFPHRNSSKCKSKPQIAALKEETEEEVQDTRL
In short: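 Cells were seeded with 0.5 μg/mL doxycycline and held 68 h at 37 °C. Test compounds plus 3 μM co-corrector (final 0.1% DMSO) were then added for 20 h at 33 °C. Washed cells received HRP substrate, and luminescence was normalized between DMSO and 3 μM co-corrector controls.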

ΔF508-CFTR [2] = molecular target: T1, ΔF508-CFTR; assay: CFTR cell surface levels using HRP-tagged ΔF508-CFTR expressing CFBE cells, intrinsic corrector capacity; assay type: cell-based; conditions: HRP-tagged ΔF508-CFTR CFBE41o- cells, compounds alone (intrinsic corrector capacity), 20 hours at 33° C.; for % Activation: positive control 3 μM corrector; for EC50: read-out: EC50
In short: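 Here the cells express ΔF508-CFTR with horseradish peroxidase inserted in extracellular loop 4, so only rescued channel at the surface gives luminescent signal. Compounds act on their own, 20 h at the reduced temperature of 33 °C; values are percent activity relative to DMSO and a 3 μM corrector.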

SMILES | % Activation (ΔF508-CFTR [1]) | EC50 (ΔF508-CFTR [1]) | % Activation (ΔF508-CFTR [2]) | EC50 (ΔF508-CFTR [2])
CC(C)c1nn(-c2ccc(F)cc2F)c2nc(C(=O)O)cc(-c3ccc(N4CCC(C#N)CC4)cc3)c12 [compound 327, 4-[4-(4-cyanopiperidin-1-yl)phenyl]-1-(2,4-difluorophenyl)-3-(propan-2-yl)-1H-pyrazolo[3,4-b]pyridine-6-carboxylic acid] | 335.63% | 241 nM | 176% | 369 nM
CC(C)c1nn(-c2cccc(N(C)C)c2)c2nc(C(=O)O)cc(N3CCCCC3)c12 [compound 328, 1-[3-(dimethylamino)phenyl]-4-(piperidin-1-yl)-3-(propan-2-yl)-1H-pyrazolo[3,4-b]pyridine-6-carboxylic acid] | 422.25% | 463 nM | 196.9% | 671 nM
CC(C)c1nn(-c2cccc(N(C)C)c2)c2nc(C(=O)O)cc(N3CCC(C#N)CC3)c12 [compound 329, 4-(4-cyanopiperidin-1-yl)-1-[3-(dimethylamino)phenyl]-3-(propan-2-yl)-1H-pyrazolo[3,4-b]pyridine-6-carboxylic acid] | 454.57% | 307 nM | 239.4% | 558 nM
COC1CCN(c2cc(C(=O)O)nc3c2c(C(C)C)nn3-c2cccc(N(C)C)c2)CC1 [compound 330, 1-[3-(dimethylamino)phenyl]-4-(4-methoxypiperidin-1-yl)-3-(propan-2-yl)-1H-pyrazolo[3,4-b]pyridine-6-carboxylic acid] | 509.93% | 197 nM | 326.43% | 405 nM
CC(C)c1nn(-c2cccc(N(C)C)c2)c2nc(C(=O)O)cc(N3CCC(CO)CC3)c12 [compound 331, 1-[3-(dimethylamino)phenyl]-4-[4-(hydroxymethyl)piperidin-1-yl]-3-(propan-2-yl)-1H-pyrazolo[3,4-b]pyridine-6-carboxylic acid] | 513.57% | 390 nM | 311.73% | 1050 nM
Cc1nn(-c2ccccc2)c2nc(C(=O)O)cc(O[C@H]3C[C@@H](N4CCS(=O)(=O)CC4)C3)c12 [compound 333, 4-{[cis-3-(1,1-dioxo-1λ^6,4-thiazinan-4-yl)cyclobutyl]oxy}-3-methyl-1-phenyl-1H-pyrazolo[3,4-b]pyridine-6-carboxylic acid] | 150.85% | 4110 nM | 27.26% | 4170 nM
Cc1nn(-c2ccccc2)c2nc(C(=O)O)cc(OCCN3CCS(=O)(=O)CC3)c12 [compound 334, 4-[2-(1,1-dioxo-lλ^6,4-thiazinan-4-yl)ethoxy]-3-methyl-1-phenyl-1H-pyrazolo[3,4-b]pyridine-6-carboxylic acid] | 226.6% | 1900 nM | 36.645% | 4170 nM
Cc1nn(-c2ccccc2)c2nc(C(=O)O)cc(OC[C@@H](F)C3CCOCC3)c12 [compound 335, 4-[(2S)-2-fluoro-2-(oxan-4-yl)ethoxy]-3-methyl-I-phenyl-1H-pyrazolo[3,4-b]pyridine-6-carboxylic acid] | 259.25% | 1380 nM | 100.33% | 1610 nM
Cc1nn(-c2ccccc2)c2nc(C(=O)O)cc(OC[C@H](F)C3CCOCC3)c12 [compound 336, 4-[(2R)-2-fluoro-2-(oxan-4-yl)ethoxy]-3-methyl-1-phenyl-1H-pyrazolo[3,4-b]pyridine-6-carboxylic acid] | 297.8% | 1320 nM | 118.2% | 1370 nM
Cc1nn(-c2ccccc2)c2nc(C(=O)O)cc(O[C@H]3CCN(C)C3)c12 [compound 337, 3-methyl-4-{[(3S)-1-methylpyrrolidin-3-yl]oxy}-1-phenyl-1H-pyrazolo[3,4-b]pyridine-6-carboxylic acid] | 139.85% | 4170 nM | 15.48% | 7500 nM
Cc1nn(-c2ccccc2)c2nc(C(=O)O)cc(O[C@@H]3CCN(C)C3)c12 [compound 338, 3-methyl-4-{[(3R)-1-methylpyrrolidin-3-yl]oxy}-1-phenyl-1H-pyrazolo[3,4-b]pyridine-6-carboxylic acid] | 135.7% | 7500 nM | 12.64% | 7500 nM
Cc1nn(-c2ccccc2)c2nc(C(=O)O)cc(OC3CCN(C)CC3)c12 [compound 339, 3-methyl-4-[(1-methylpiperidin-4-yl)oxy]-1-phenyl-1H-pyrazolo[3,4-b]pyridine-6-carboxylic acid] | 126.85% | 7500 nM | 15.162% | 7500 nM
Cc1nn(-c2ccccc2)c2nc(C(=O)O)cc(O[C@H]3C[C@@H](N(C)C)C3)c12 [compound 340, 4-{[cis-3-(dimethylamino)cyclobutyl]oxy}-3-methyl-1-phenyl-1H-pyrazolo[3,4-b]pyridine-6-carboxylic acid] | 146% | 4170 nM | 18.86% | 7500 nM
Cc1nn(-c2ccccc2)c2nc(C(=O)O)cc(OC3COC3)c12 [compound 341, 3-methyl-4-[(oxetan-3-yl)oxy]-1-phenyl-1H-pyrazolo[3,4-b]pyridine-6-carboxylic acid] | 149.55% | 4090 nM | 25.115% | 4170 nM
Cc1nn(-c2ccccc2)c2nc(C(=O)O)cc(OCCN3CCCC3)c12 [compound 342, 3-methyl-1-phenyl-4-[2-(pyrrolidin-1-yl)ethoxy]-1H-pyrazolo[3,4-b]pyridine-6-carboxylic acid] | 138.5% | 3370 nM | 19.4% | 7500 nM
Cc1nn(-c2ccccc2)c2nc(C(=O)O)cc(O[C@@H]3CCCN(C)C3)c12 [compound 343, 3-methyl-4-{[(3R)-1-methylpiperidin-3-yl]oxy}-1-phenyl-1H-pyrazolo[3,4-b]pyridine-6-carboxylic acid] | 104.7% | 7500 nM | 11.085% | 7500 nM
Cc1nn(-c2ccccc2)c2nc(C(=O)O)cc(OC3CC4(COC4)C3)c12 [compound 344, 3-methyl-4-[(2-oxaspiro[3.3]heptan-6-yl)oxy]-1-phenyl-1H-pyrazolo[3,4-b]pyridine-6-carboxylic acid] | 218.25% | 1770 nM | 69.225% | 2510 nM
Cc1nn(-c2ccccc2)c2nc(C(=O)O)cc(O[C@H]3C[C@H](N4CCCCC4)C3)c12 [compound 345, 3-methyl-1-phenyl-4-{[trans-3-(piperidin-1-yl)cyclobutyl]oxy}-1H-pyrazolo[3,4-b]pyridine-6-carboxylic acid] | 129.4% | 4170 nM | 23.411% | 4170 nM
Cc1nn(-c2ccccc2)c2nc(C(=O)O)cc(O[C@H]3C[C@@H](N4CCCCC4)C3)c12 [compound 346, 3-methyl-1-phenyl-4-{[cis-3-(piperidin-1-yl)cyclobutyl]oxy}-1H-pyrazolo[3,4-b]pyridine-6-carboxylic acid] | 151.2% | 4170 nM | 20.555% | 7500 nM
Cc1nn(-c2ccccc2)c2nc(C(=O)O)cc(OCCC3CC(F)(F)C3)c12 [compound 347, 4-[2-(3,3-difluorocyclobutyl)ethoxy]-3-methyl-1-phenyl-1H-pyrazolo[3,4-b]pyridine-6-carboxylic acid] | 259.55% | 1410 nM | 79.835% | 1410 nM
Cc1cccc(-n2nc(C(C)C)c3c(N4CCC(CF)CC4)cc(C(=O)O)nc32)c1 [compound 348, 4-[4-(fluoromethyl)piperidin-1-yl]-1-(3-methylphenyl)-3-(propan-2-yl)-1H-pyrazolo[3,4-b]pyridine-6-carboxylic acid] | 410.3% | 370 nM | 217.2% | 553 nM
O=C(O)c1cc(-c2ccc(N3CCOCC3)cc2)c2c(C3CCC3)nn(-c3cccc(F)c3)c2n1 [compound 349, 3-cyclobutyl-1-(3-fluorophenyl)-4-[4-(morpholin-4-yl)phenyl]-1H-pyrazolo[3,4-b]pyridine-6-carboxylic acid] | 382.73% | 236 nM | 208.2% | 460 nM
O=C(O)c1cc(-c2ccc(N3CCOCC3)cc2)c2c(C3CCC3)nn(-c3ccc(F)c(F)c3)c2n1 [compound 350, 3-cyclobutyl-1-(3,4-difluorophenyl)-4-[4-(morpholin-4-yl)phenyl]-1H-pyrazolo[3,4-b]pyridine-6-carboxylic acid] | 397.5% | 316 nM | 211% | 426 nM
CC(C)c1nn(C2CCCCC2)c2nc(C(=O)O)cc(-c3ccn(C)c3)c12 [compound 351, 1-cyclohexyl-4-(1-methyl-1H-pyrrol-3-yl)-3-(propan-2-yl)-1H-pyrazolo[3,4-b]pyridine-6-carboxylic acid] | 256.6% | 1520 nM | 84.055% | 1610 nM
